Results on 30 compounds are retold here after US20080207708A1, “Oxazole and Thiazole Compounds and Their Use in the Treatment of Pge2 Mediated Disorders” (GLAXO GROUP LIMITED, priority 2005, published 2008).

SMILES strings stand for the structures. Where a name gives a salt, the structure may show the parent alone.

The experiment deals with T1, EP1 receptors (Homo sapiens, UniProt P34995).
T1 sequence (P34995 1-402): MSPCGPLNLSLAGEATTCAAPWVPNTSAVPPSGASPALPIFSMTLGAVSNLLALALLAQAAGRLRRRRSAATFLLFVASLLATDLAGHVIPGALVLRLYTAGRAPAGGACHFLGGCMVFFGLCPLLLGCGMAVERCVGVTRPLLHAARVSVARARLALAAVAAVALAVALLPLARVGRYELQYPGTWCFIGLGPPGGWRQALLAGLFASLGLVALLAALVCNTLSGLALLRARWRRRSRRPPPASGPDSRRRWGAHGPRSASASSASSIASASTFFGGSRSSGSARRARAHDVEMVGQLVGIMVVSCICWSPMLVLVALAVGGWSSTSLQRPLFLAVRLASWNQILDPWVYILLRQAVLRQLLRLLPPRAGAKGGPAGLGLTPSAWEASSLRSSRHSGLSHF
As to the kind of experiment: Binding assay for the human prostanoid EP1 receptor (competition with [3H]-PGE2). The arrangement: expressed in transfected cells; host or cells: CHO-K1 cells, membrane fraction. The note with it: [3H]-PGE2 competition; averages of a number of experiments; read-out: pIC50 value, binding assay for the human prostanoid EP1 receptor (converted). The procedure:
Competition assay using [^3H]-PGE2.
Compound potencies are determined using a radioligand binding assay. In this assay compound potencies are determined from their ability to compete with tritiated prostaglandin E2 ([^3H]-PGE2) for binding to the human EP1 receptor.
This assay utilises Chinese hamster ovary-K1 (CHO-K1) cells into which a stable vector containing the EP1 cDNA has previously been transfected. Cells are cultured in suitable flasks containing culture medium such as DMEM:F-12 supplemented with 10% v/v foetal calf serum, 2 mM L-glutamine, 0.25 mg/ml geneticin, 10 μg/ml puromycin and 10 μM indomethacin.
Cells are detached from the culture flasks by incubation in calcium and magnesium free phosphate buffered saline containing 1 mM disodium ethylenediaminetetraacetic acid (Na2EDTA) and 10 μM indomethacin for 5 min. The cells are isolated by centrifugation at 250×g for 5mins and suspended in an ice cold buffer such as 50 mM Tris, 1 mM Na2EDTA, 140 mM NaCl, 10 μM indomethacin (pH 7.4). The cells are homogenised using a Polytron tissue disrupter (2×10 s burst at full setting), centrifuged at 48,000×g for 20mins and the pellet containing the membrane fraction is washed (optional) three times by suspension and centrifugation at 48,000×g for 20mins. The final membrane pellet is suspended in an assay buffer such as 10 mM 2-[N-morpholino]ethanesulphonic acid, 1 mM Na2EDTA, 10 mM MgCl2 (pH 6). Aliquots are frozen at […] until required.
For the binding assay the cell membranes, competing compounds and [^3H]-PGE2 (3 nM final assay concentration) are incubated in a final volume of 100 μl for 30 min at 30° C. All reagents are prepared in assay buffer. Reactions are terminated by rapid vacuum filtration over GF/B filters using a Brandell cell harvester. The filters are washed with ice cold assay buffer, dried and the radioactivity retained on the filters is measured by liquid scintillation counting in Packard TopCount scintillation counter.
The data are analysed using non linear curve fitting techniques to determine the concentration of compound producing 50% inhibition of specific binding (IC50).
With `O=C(O)Cc1csc(-c2cc(Cl)ccc2OCc2c(F)cc(F)cc2F)n1` [Example 64, Sodium [2-(5-chloro-2-{[(2,4,6-trifluorophenyl)methyl]oxy}phenyl)-1,3-thiazol-4-yl]acetate], the IC50 was at most 1000 nM. For `O=C(O)Cc1csc(-c2cc(Cl)ccc2OCc2ccc(Cl)cc2F)n1` [Example 65, Sodium [2-(5-chloro-2-{[(4-chloro-2-fluorophenyl)methyl]oxy}phenyl)-1,3-thiazol-4-yl]acetate] the value was at most 31.6 nM; for `O=C(O)Cc1csc(-c2cc(Cl)ccc2OCc2ccc(F)cc2Cl)n1` [Example 66, Sodium [2-(5-chloro-2-{[(2-chloro-4-fluorophenyl)methyl]oxy}phenyl)-1,3-thiazol-4-yl]acetate], at most 1000 nM.

For `O=C(O)Cc1csc(-c2cc(Cl)ccc2OCc2c(F)ccc(F)c2F)n1` [Example 67, Sodium [2-(5-chloro-2-{[(2,3,6-trifluorophenyl)methyl]oxy}phenyl)-1,3-thiazol-4-yl]acetate], the IC50 was at most 1000 nM. For the compound `O=C(O)Cc1csc(-c2cc(Cl)ccc2OCc2cc(F)c(F)cc2F)n1` [Example 68, Sodium [2-(5-chloro-2-{[(2,4,5-trifluorophenyl)methyl]oxy}phenyl)-1,3-thiazol-4-yl]acetate], the IC50 was at most 1000 nM. Then `O=C(O)Cc1csc(-c2cc(Cl)ccc2OCc2cc(F)c(F)c(F)c2)n1` [Example 69, Sodium [2-(5-chloro-2-{[(3,4,5-trifluorophenyl)methyl]oxy}phenyl)-1,3-thiazol-4-yl]acetate], with at most 1000 nM; and `O=C(O)Cc1csc(-c2cc(Cl)ccc2OCc2ccccc2Cl)n1` [Example 70, Sodium [2-(5-chloro-2-{[(2-chlorophenyl)methyl]oxy}phenyl)-1,3-thiazol-4-yl]acetate], with at most 1000 nM.

With `O=C(O)Cc1csc(-c2cc(Cl)ccc2OCc2ccc(Cl)cc2)n1` [Example 71, Sodium [2-(5-chloro-2-{[(4-chlorophenyl)methyl]oxy}phenyl)-1,3-thiazol-4-yl]acetate], the IC50 was at most 31.6 nM. `O=C(O)Cc1csc(-c2cc(Cl)ccc2OCc2ccc(F)cc2)n1` [Example 72, Sodium [2-(5-chloro-2-{[(4-fluorophenyl)methyl]oxy}phenyl)-1,3-thiazol-4-yl]acetate]: the IC50 was at most 1000 nM. For `O=C(O)Cc1csc(-c2cc(Cl)ccc2OCc2ccccc2)n1` [Example 73, Sodium [2-{5-chloro-2-[(phenylmethyl)oxy]phenyl}-1,3-thiazol-4-yl)acetate] the value was at most 31.6 nM; for `O=C(O)c1nc(Cc2cc(Cl)ccc2OCc2ccc(F)cc2F)cs1` [Example 74, Sodium 4-[(5-chloro-2-{[(2,4-difluorophenyl)methyl]oxy}phenyl)methyl]-1,3-thiazole-2-carboxylate], at most 31.6 nM; for `O=C(O)c1csc(Nc2cc(Cl)ccc2OCc2ccccc2)n1` [Example 75, Sodium 2-({5-chloro-2-[(phenylmethyl)oxy]phenyl}amino)-1,3-thiazole-4-carboxylate], at most 1000 nM. Then `O=C(O)c1nc(Cc2cc(Cl)ccc2OCc2ccccc2)cs1` [Example 76, Sodium 4-({5-chloro-2-[(phenylmethyl)oxy]phenyl}methyl)-1,3-thiazole-2-carboxylate], with at most 31.6 nM; and `O=C(O)c1nc(Cc2cc(Cl)ccc2OCc2ccc(F)cc2)cs1` [Example 77, Sodium 4-[(5-chloro-2-{[(4-fluorophenyl)methyl]oxy}phenyl)methyl]-1,3-thiazole-2-carboxylate], with at most 31.6 nM. Turning to `O=C(O)c1coc(Cc2cc(Cl)ccc2OCc2ccccc2)n1` [Example 78, Sodium 2-({5-chloro-2-[(phenylmethyl)oxy]phenyl}methyl)-1,3-oxazole-4-carboxylate], the IC50 is at most 31.6 nM. As to `CC(C)COc1ccc(Cl)cc1C(F)(F)c1nc(C(=O)O)cs1` [Example 82, Sodium 2-[{5-chloro-2-[(2-methylpropyl)oxy]phenyl}(difluoro)methyl]-1,3-thiazole-4-carboxylate], the IC50 was at most 1000 nM.

Regarding `O=C(O)c1nc(Cc2cc(Cl)ccc2OCc2ccccc2Cl)cs1` [Example 83, Sodium 4-[(5-chloro-2-{[(2-chlorophenyl)methyl]oxy}phenyl)methyl]-1,3-thiazole-2-carboxylate], the IC50 was at most 31.6 nM. Then `O=C(O)c1nc(Cc2cc(Cl)ccc2OCc2ccccc2F)cs1` [Example 84, Sodium 4-[(5-chloro-2-{[(2-fluorophenyl)methyl]oxy}-phenyl)methyl]-1,3-thiazole-2-carboxylate], with at most 31.6 nM; and `O=C(O)c1nc(Cc2cc(Cl)ccc2OCc2c(F)cc(F)cc2F)cs1` [Example 85, Sodium 4-[(5-chloro-2-{[(2,4,6-trifluorophenyl)methyl]-oxy}phenyl)methyl]-1,3-thiazole-2-carboxylate], with at most 31.6 nM.

Turning to `O=C(O)c1nc(Cc2cc(Cl)ccc2OCc2ccc(Cl)cc2)cs1` [Example 86, Sodium 4-[(5-chloro-2-{[(4-chlorophenyl)methyl]-oxy}phenyl)methyl]-1,3-thiazole-2-carboxylate], the IC50 is at most 31.6 nM. Regarding `O=C(O)c1nc(Cc2cc(Cl)ccc2OCc2ccc(F)cc2Cl)cs1` [Example 87, Sodium 4-[(5-chloro-2-{[(2-chloro-4-fluorophenyl)methyl]oxy}-phenyl)methyl]-1,3-thiazole-2-carboxylate], the IC50 was at most 31.6 nM. For `O=C(O)c1nc(Cc2cc(Cl)ccc2OCc2c(F)ccc(F)c2F)cs1` [Example 88, Sodium 4-[(5-chloro-2-{[(2,3,6-trifluorophenyl)methyl]-oxy}phenyl)methyl]-1,3-thiazole-2-carboxylate], the IC50 is at most 1000 nM. For `O=C(O)c1nc(Cc2cc(Cl)ccc2OCc2cc(F)c(F)cc2F)cs1` [Example 89, Sodium 4-[(5-chloro-2-{[(2,4,5-trifluorophenyl)methyl]-oxy}phenyl)methyl]-1,3-thiazole-2-carboxylate] the value was at most 31.6 nM; for `NC(=O)c1csc(Cc2cc(Cl)ccc2OCc2ccccc2)n1` [Example 90, 2-({5-Chloro-2-[(phenylmethyl)oxy]phenyl}methyl)-1,3-thiazole-4-carboxamide], at most 1000 nM. Then `O=C(NS(=O)(=O)c1ccccc1)c1csc(Cc2cc(Cl)ccc2OCc2ccccc2)n1` [Example 100, 2-({5-Chloro-2-[(phenylmethyl)oxy]phenyl}methyl)-N-(phenylsulfonyl)-1,3-thiazole-4-carboxamide], with at most 31.6 nM. Then `Clc1ccc(OCc2ccccc2)c(Cc2nc(-c3nnn[nH]3)cs2)c1` [Example 109, 5-[2-({5-Chloro-2-[(phenylmethyl)oxy]phenyl}methyl)-1,3-thiazol-4-yl]-1H-tetrazole], with at most 31.6 nM. `O=C1CN(Cc2ccc(NC(=O)c3csc(Cc4cc(Cl)ccc4OCc4ccccc4)n3)cc2)CCN1` [Example 122, 2-({5-Chloro-2-[(phenylmethyl)oxy]phenyl}-methyl)-N-{4-[(3-oxo-1-piperazinyl)methyl]phenyl}-1,3-thiazole-4-carboxamidehydrochloride]: the IC50 was at most 31.6 nM. Then `CC(C)COc1ccc(Cl)cc1Cc1nc(-c2nc3ccc(CN4CCCC4)cc3[nH]2)cs1` [Example 123, 2-[2-({5-Chloro-2-[(2-methylpropyl)oxy]phenyl}-methyl)-1,3-thiazol-4-yl]-5-(1-pyrrolidinylmethyl)-1H-benzimidazole hydrochloride], with at most 31.6 nM; and `Clc1ccc(OCc2ccccc2)c(Cc2nc(-c3nc4ccc(Cl)nc4[nH]3)cs2)c1` [Example 138, 5-Chloro-2-[2-({5-chloro-2-[(phenylmethyl)oxy]phenyl}methyl)-1,3-thiazol-4-yl]-1H-imidazo[4,5-b]pyridinehydrochloride], with at most 31.6 nM. Then `Clc1ccc(OCc2ccccc2)c(Cc2nc(-c3nnc[nH]3)cs2)c1` [Example 156, 3-[2-({5-Chloro-2-[(phenylmethyl)oxy]phenyl}methyl)-1,3-thiazol-4-yl]-1H-1,2,4-triazole], with at most 1000 nM.
